Read-outs that look alike come from different tables or passages of the source.
Tested on: PBMC (T cell proliferation)
Assay: T cell proliferation assay, PHA-stimulated human PBMC (BrdU ELISA)
Format: cell-based
Details: 48 hours, BrdU
Summary of the method: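 Healthy-donor human PBMC, Ficoll-isolated, seeded 1×10^5 cells/well in RPMI1640 with 10% dialyzed FCS, stimulated with 2 μg/ml PHA alongside test compound. Proliferation read after 48 hours by BrdU ELISA.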

[1] = human PBMC, 2 μg/ml PHA, read-out: D: IC50 (Tcell proliferation)
[2] = PHA-stimulated human PBMC, column D, activity classes 1-4, read-out: IC50 (Tcell proliferation)

Compound | IC50 [1] [nM] | IC50 [2] [nM]
COC(=O)c1c(-c2c(F)cccc2Cl)noc1-c1cnn(-c2cccnc2)c1C(F)(F)F [Example B-67, methyl 3-(2-chloro-6-fluorophenyl)-5-(1-(pyridin-3-yl)-5-(trifluoromethyl)-1H-pyrazol-4-yl)isoxazole-4-carboxylate] | 10 to 100 | 
CCOC(=O)c1c(-c2c(F)cccc2Cl)noc1-c1cnn(-c2ccccn2)c1C(F)(F)F [Example B-84, ethyl 3-(2-chloro-6-fluorophenyl)-5-(1-(pyridin-2-yl)-5-(trifluoromethyl)-1H-pyrazol-4-yl)isoxazole-4-carboxylate] | < 10 | 
Fc1cccc(Cl)c1-c1noc(-c2cnn(-c3cccnc3)c2C(F)(F)F)c1-c1nnco1 [IB-15, 2-(3-(2-chloro-6-fluorophenyl)-5-(1-(pyridin-3-yl)-5-(trifluoromethyl)-1H-pyrazol-4-yl)isoxazol-4-yl)-1,3,4-oxadiazole] |  | 100 to 1000
CCOC(=O)c1c(-c2c(F)cccc2Cl)noc1-c1cnn(-c2cccc(NC(C)=O)c2)c1C(F)(F)F [Example B-70, ethyl 5-(1-(3-acetamidophenyl)-5-(trifluoromethyl)-1H-pyrazol-4-yl)-3-(2-chloro-6-fluorophenyl)isoxazole-4-carboxylate] | 10 to 100 | 
Fc1cccc(Cl)c1-c1noc(-c2cnn(-c3ccccc3)c2C(F)(F)F)c1Br [Example 145, 4-bromo-3-(2-chloro-6-fluorophenyl)-5-(1-phenyl-5-(trifluoromethyl)-1H-pyrazol-4-yl)isoxazole] | 10 to 100 | 
CCOC(=O)c1c(-c2ccccc2F)noc1-c1cnn(-c2cccc(F)c2)c1C(F)(F)F [Example 90, ethyl 3-(2-fluorophenyl)-5-(1-(3-fluorophenyl)-5-(trifluoromethyl)-1H-pyrazol-4-yl)isoxazole-4-carboxylate] | 100 to 1000 | 
CON(C)C(=O)c1c(-c2c(F)cccc2Cl)noc1-c1cnn(-c2ccncc2)c1C(F)(F)F [Example B-59, 3-(2-chloro-6-fluorophenyl)-N-methoxy-N-methyl-5-(1-(pyridin-4-yl)-5-(trifluoromethyl)-1H-pyrazol-4-yl)isoxazole-4-carboxamide] | 1000 to 10000 | 
CCOC(=O)c1c(-c2onc(-c3c(F)cccc3Cl)c2C(=O)OC)cnn1-c1ccccc1 [Example 34, methyl 3-(2-chloro-6-fluorophenyl)-5-(5-(ethoxycarbonyl)-1-phenyl-1Hpyrazol-4-yl)isoxazole-4-carboxylate] | 1000 to 10000 | 
COC(=O)c1c(-c2ccccc2)noc1-c1cnn(-c2cccc(F)c2)c1C(F)(F)F [Example 51, methyl 5-(1-(3-fluorophenyl)-5-(trifluoromethyl)-1H-pyrazol-4-yl)-3-phenylisoxazole-4-carboxylate] | 1000 to 10000 | 
O=C(c1c(-c2c(F)cccc2Cl)noc1-c1cnn(-c2ccncc2)c1C(F)(F)F)N1CCCO1 [Example B-57, (3-(2-chloro-6-fluorophenyl)-5-(1-(pyridin-4-yl)-5-(trifluoromethyl)-1H-pyrazol-4-yl)isoxazol-4-yl)(isoxazolidin-2-yl)methanone] | 1000 to 10000 | 
CCOC(=O)c1c(-c2c(F)cccc2Cl)noc1-c1cnn(-c2ccccc2NC(C)=O)c1C(F)(F)F [Example B-1] | 1000 to 10000 | 
N#Cc1c(-c2c(F)cccc2Cl)noc1-c1cnn(-c2cccc(Cl)c2)c1C(F)(F)F [Example 49, 3-(2-chloro-6-fluorophenyl)-5-(1-(3-chlorophenyl)-5-(trifluoromethyl)-1H-pyrazol-4-yl)isoxazole-4-carbonitrile] | 100 to 1000 | 
Fc1cccc(Cl)c1-c1noc(-c2cnn(-c3ccccn3)c2C(F)(F)F)c1-c1nnco1 [IB-25, 2-(3-(2-chloro-6-fluorophenyl)-5-(1-(pyridin-2-yl)-5-(trifluoromethyl)-1H-pyrazol-4-yl)isoxazol-4-yl)-1,3,4-oxadiazole] |  | 10 to 100
CCOC(=O)c1c(-c2c(F)cccc2Cl)noc1-c1cnn(-c2ccncc2)c1C(F)(F)F [Example B-38, ethyl 3-(2-chloro-6-fluorophenyl)-5-(1-(pyridin-4-yl)-5-(trifluoromethyl)-1H-pyrazol-4-yl)-isoxazole-4-carboxylate] | < 10 | 
COC(=O)c1c(-c2ccccc2)noc1-c1cnn(-c2cccc(Cl)c2)c1C(F)(F)F [Example B-30, methyl 5-(1-(3-chlorophenyl)-5-(trifluoromethyl)-1H-pyrazol-4-yl)-3-phenylisoxazole-4-carboxylate] | 100 to 1000 | 
COC(=O)c1c(-c2c(F)cccc2Cl)noc1-c1cnn(-c2nc(-c3ccc(F)cc3)cs2)c1C(F)(F)F [Example 54, methyl 3-(2-chloro-6-fluorophenyl)-5-(1-(4-(4-fluorophenyl)thiazol-2-yl)-5-(trifluoromethyl)-1H-pyrazol-4-yl)isoxazole-4-carboxylate] | 1000 to 10000 | 

Compound | IC50 [1] [nM] | IC50 [2] [nM]
Fc1cccc(Cl)c1-c1noc(-c2cnn(-c3cccc(Cl)c3)c2C(F)(F)F)c1-c1nnco1 [IB-5, 2-(3-(2-chloro-6-fluorophenyl)-5-(1-(3-chlorophenyl)-5-(trifluoromethyl)-1H-pyrazol-4-yl)isoxazol-4-yl)-1,3,4-oxadiazole] |  | < 10
O=C(Nc1c(-c2c(F)cccc2Cl)noc1-c1cnn(-c2cccc(F)c2)c1C(F)(F)F)C(F)(F)F [Example B-22, N-(3-(2-chloro-6-fluorophenyl)-5-[1-(3-fluorophenyl)-5-(trifluoromethyl)-1H-pyrazol-4-yl]-1,2-oxazol-4-yl)-2,2,2-trifluoroacetamide] | 1000 to 10000 | 
CC(C)OC(=O)c1c(-c2c(F)cccc2Cl)noc1-c1cnn(-c2ccccc2F)c1C(F)(F)F [Example 43, i-Propyl 3-(2-chloro-6-fluorophenyl)-5-[1-(2-fluorophenyl)-5-(trifluoromethyl)-1H-pyrazol-4-yl]isoxazole-4-carboxylate] | 10 to 100 | 
NNC(=O)c1c(-c2c(F)cccc2Cl)noc1-c1cnn(-c2cccc(F)c2)c1C(F)(F)F [Example 133, 3-(2-chloro-6-fluorophenyl)-5-(1-(3-fluorophenyl)-5-(trifluoromethyl)-1H-pyrazol-4-yl)isoxazole-4-carbohydrazide] | 1000 to 10000 | 
NC(=O)c1c(-c2c(F)cccc2Cl)noc1-c1cnn(-c2cccc(F)c2)c1C(F)(F)F [Example 124, 3-(2-chloro-6-fluorophenyl)-5-(1-(3-fluorophenyl)-5-(trifluoromethyl)-1H-pyrazol-4-yl)isoxazole-4-carboxamide] | 1000 to 10000 | 
CC(=O)Nc1c(-c2c(F)cccc2Cl)noc1-c1cnn(-c2cccc(F)c2)c1C(F)(F)F [Example 139, N-(3-(2-chloro-6-fluorophenyl)-5-(1-(3-fluorophenyl)-5-(trifluoromethyl)-1H-pyrazol-4-yl)isoxazol-4-yl)acetamide] | 1000 to 10000 | 
CON(C)C(=O)c1c(-c2c(F)cccc2Cl)noc1-c1cnn(-c2cccnc2)c1C(F)(F)F [Example B-56, 3-(2-chloro-6-fluorophenyl)-N-methoxy-N-methyl-5-(1-(pyridin-3-yl)-5-(trifluoromethyl)-1H-pyrazol-4-yl)isoxazole-4-carboxamide] | 1000 to 10000 | 
Fc1ccccc1-n1ncc(-c2onc(-c3c(F)cccc3Cl)c2-c2nccs2)c1C(F)(F)F [IB-30, 3-(2-chloro-6-fluorophenyl)-5-(1-(2-fluorophenyl)-5-(trifluoromethyl)-1H-pyrazol-4-yl)-4-(thiazol-2-yl)isoxazole] |  | 10 to 100
CON(C)C(=O)c1c(-c2c(F)cccc2Cl)noc1-c1cnn(-c2cccc(Cl)c2)c1C(F)(F)F [Example 63, 3-(2-chloro-6-fluorophenyl)-5-(1-(3-chlorophenyl)-5-(trifluoromethyl)-1H-pyrazol-4-yl)-N-methoxy-N-methylisoxazole-4-carboxamide] | 100 to 1000 | 
CC(C)OC(=O)c1c(-c2c(F)cccc2Cl)noc1-c1cnn(-c2ccncc2)c1C(F)(F)F [Example B-82, isopropyl 3-(2-chloro-6-fluorophenyl)-5-(1-(pyridin-4-yl)-5-(trifluoromethyl)-1H-pyrazol-4-yl)isoxazole-4-carboxylate] | 10 to 100 | 
COC(=O)c1c(-c2c(F)cccc2Cl)noc1-c1cnn(-c2nccc(C(F)(F)F)n2)c1C(F)(F)F [Example 67, methyl 3-(2-chloro-6-fluorophenyl)-5-(5-(trifluoromethyl)-1-(4-(trifluoromethyl)pyrimidin-2-yl)-1H-pyrazol-4-yl)isoxazole-4-carboxylate] | 100 to 1000 | 
CCOC(=O)c1c(-c2c(F)cccc2Cl)noc1-c1cnn(CCOC)c1C(F)(F)F [Example B-2, ethyl 3-(2-chloro-6-fluorophenyl)-5-(1-(2-methoxyethyl)-5-(trifluoromethyl)-1H-pyrazol-4-yl)isoxazole-4-carboxylate] | 1000 to 10000 | 
CCOC(=O)c1c(-c2onc(-c3c(F)cccc3Cl)c2C(=O)OC)cnn1-c1ccccc1F [Example 41, methyl 3-(2-chloro-6-phenyl)-5-(5-(ethoxycarbonyl)-1-(2-fluorophenyl)-1H-pyrazol-4-yl)isoxazole-4-carboxylate] | 100 to 1000 | 
Fc1cccc(Cl)c1-c1noc(-c2cnn(-c3cccc(Cl)c3)c2C(F)(F)F)c1-c1nncs1 [IB-8, 3-(2-chloro-6-fluorophenyl)-5-(1-(3-chlorophenyl)-5-(trifluoromethyl)-1H-pyrazol-4-yl)-4-(1,3,4-thiadiazol-2-yl)isoxazole] |  | < 10
Fc1cccc(-n2ncc(-c3onc(-c4c(F)cccc4Cl)c3-c3ccccc3)c2C(F)(F)F)c1 [Example I-14, 3-(2-chloro-6-fluorophenyl)-5-(1-(3-fluorophenyl)-5-(trifluoromethyl)-1H-pyrazol-4-yl)-4-phenylisoxazole] |  | 100 to 1000
COC(=O)c1c(-c2ccc(Cl)cc2Cl)noc1-c1cnn(-c2cccc(Cl)c2)c1C(F)(F)F [Example B-76, methyl 5-(1-(3-chlorophenyl)-5-(trifluoromethyl)-1H-pyrazol-4-yl)-3-(2,4-dichlorophenyl)isoxazole-4-carboxylate] | 100 to 1000 | 
